Experimental data as given in patent publication US10329542B2, “HBV RNAse H purification and enzyme inhibitors” (Saint Louis University, priority 2012, dated 2019).

What was measured:
[1] = target: T1, chimeric HBV:HIV RNAseH HHC1 (Hepatitis B virus genotype D subtype ayw, UniProt P03156, DELINS787-795VNQIIEQLIVK/INS679M); test: Oligonucleotide-directed RNAseH cleavage assay, chimeric HHC1; format: biochemical; details: read-out: Residual activity at 10 uM, HHC1
T1 construct: HHC1 is an HRHPL derivative; made in house; host or cells: E. coli BL21 codon+
T1 sequence (P03156 680-786, added parts left off, stated change not applied): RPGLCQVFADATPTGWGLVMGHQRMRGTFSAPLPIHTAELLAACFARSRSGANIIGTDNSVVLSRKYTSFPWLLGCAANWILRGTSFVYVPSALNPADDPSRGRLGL
In short: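 Bacterially expressed C-terminal His-tagged HHC1 (HRHPL, HBV genotype D pol 684-845, with residues 800-808 swapped for HIV RNAseH helix D) extract mixed with internally 32P-labeled DRF+ RNA and oligonucleotide D2507- (D2526+ negative control), 42 °C, 90 min. Products resolved by 12% SDS-PAGE, autoradiographed and quantified; compounds added in DMSO, DMSO vehicle control.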

[2] = tested on: HBV genotype D; test: HBV replication inhibition in Huh7 cells, Southern blot, genotype D; format: cell-based, Hepatitis B virus; details: 10 μM
Method: Huh7 cells were maintained in Dulbecco's modified Eagle's medium with 10% fetal bovine serum at 37° C. in 5% CO2. Cells were seeded into 60 mm dishes and transfected at 70% confluency with 2.6 μg of plasmids using TransIT-LT1 (Mirus, Inc.). Test compounds were added the morning following transfection at 10 or 50 μM, and fresh medium containing the compounds was provided every 1-2 days. Four or five days post-transfection HBV cores were isolated by lysis of the cells in 10 mM Tris pH 7.5, 1 mM EDTA, 0.25% NP40, 50 mM NaCl, and 8% sucrose followed by sedimentation through a 30% sucrose cushion as described (Travis, et al., 1998). […] The nucleic acid samples were resolved by electrophoresis on 1.2% agarose gels and detected by Southern blotting with ^32P-labeled HBV DNA as a probe.
Finally, the inventors asked whether HBV RNAseH inhibitors could block HBV replication in culture. […] Replicate nucleic acid aliquots were mock treated or treated with DNAse-free E. coli RNAseH to destroy RNA:DNA heteroduplexes, and then HBV DNAs were detected by Southern blotting. […]
Inhibition of HBV replication by βTJ was measured as recently described (Tavis et al., 2013). […] The nucleic acids were resolved by electrophoresis on 1.2% agarose gels and HBV DNAs were detected by Southern blotting with ^32P-labeled double-stranded HBV DNA as a probe to detect both the plus- and minus-polarity HBV DNA strands. […]

[3] = tested on: HBV; test: Quantitative PCR screen of HBV plus-polarity DNA accumulation; format: cell-based, Hepatitis B virus; details: 60, 20, or 6.7 μM; DNA isolated day 3
Method: This assay was employed to screen 7 compounds for their ability to suppress HBV replication (FIG. 17). […] Fresh medium containing compound was provided on days 1 and 2, and capsid-associated HBV DNAs were isolated on day 3. HBV plus-strand DNAs were measured using the cross-gap TaqMan PCR assay.
Plus-polarity preferential quantitative TaqMan PCR for the HBV DNA was conducted employing forward primer […] […] PCR was conducted on purified HBV capsid-derived nucleic acids for 40 cycles of 95° C. for 15 sec. and 65° C. for 1 min. employing the TaqMan universal PCR master mix (Applied Biosystems). Results were standardized against serial dilutions of cloned HBV DNA. The EC50 was estimated by linear regression of the real-time PCR data.

Compound	remaining activity at 10 µM [1]	Suppression of HBV plus-polarity DNA accumulation [3]	also measured
COc1cc2c(cc1Cc1cccc(Cl)c1F)c(=O)c(C(=O)O)cn2[C@H](CO)C(C)C [Compound 10, Elvitegravir, reference compound]	35 ± 7%	–	–
Cc1nnc(C(=O)NC(C)(C)c2nc(C(=O)NCc3ccc(F)cc3)c(O)c(=O)n2C)o1 [Compound 11, Raltegravir, reference compound]	59 ± 23%	–	–
NCc1ccc(-c2ccc(Cc3cc(=O)n(O)c4ncccc34)cc2)cc1 [Compound 12, napthyridinone]	–	–	Inhibition of HBV replication, genotype D isolate [2]: Very few of the most slowly-migrating double-stranded nucleic acids accumulated
CCOc1ccc(-c2c3cc(O)c(=O)cc-3oc3cc(O)c(O)cc23)cc1 [Compound 30]	–	inhibited accumulation of HBV plus-polarity DNA to lesser extents	–
CC(C)c1ccc(O)c(=O)c(O)c1 [Compound 46, beta-thujaplicinol]	–	suppressed viral replication to background	–
